Series [1] is described as follows: Pharmacokinetic studies of pregabalin (blood levels), oral and topical.
In another series the test system is human patient. Conditions: 2.5% aqueous solution, topical; cited from earlier work.
In series [2] the test system is rats with CCI of sciatic nerve. Nature of the series: Rat model of neuropathy: chronic constriction injury (CCI), paw withdrawal threshold with electronic von Frey device. It counts as in vivo. Conditions: 16.66 mg/kg. From the text:
Furthermore, based on the article Bennett G J, at al (Pain, A peripheral mononeuropathy in rat that produces disorders of pain sensation like those seen in man. 1988 April; 33(1):87-107) we have developed a method for the examination of the compositions of the present invention. Thus, we have examined the compositions according to the present invention also with a different model for measuring the alleviation of the peripheral neuropathic pain also. Namely, we have carried out examinations on rats using Chronic constriction injury (CCI) model. Three weeks following nerve injury rats were assessed for hind paw mechanical withdrawal thresholds. The paw withdrawal threshold (PWT) was determined with an Electronic von Frey device according to the modified up-down method of Dixon (Efficient analysis of experimental observations, Annu Rev Pharmacol Toxicol. 1980; 20:441-62). […] The method and results are shown in example 3 and on FIG. 9. […]
Briefly, under isoflurane anesthesia small blunt dissection was made into the skin of rat right thigh then three loosely constrictive ligatures were placed around common sciatic nerve (chronic constriction injury CCI). Three weeks following nerve injury rats were assessed for hind paw mechanical withdrawal thresholds. […]

Another series concerns mice, allodynia. Conditions: 2.5% aqueous solution, topical; cited from earlier work.

Turning to `CC(C)C[C@H](CN)CC(=O)O` [pregabalin], the “Blood levels after oral administration” value in series [1] (oral, 16.66 mg/kg) is on record as “relatively high blood levels”. For the same compound, the “Amount of pregabalin entering the bloodstream during topical treatment” value in series [1] (topical treatment) is reported as “very small amounts”. The “Duration of reduction of neuropathic pain in a human patient” value in the series on human patient was 6 h. Moreover, in series [2], the “Reduction of hypersensitivity after oral administration” value is listed as “not able to reduce hypersensitivity”. In the series on mice, allodynia, the “Time of maximum allodynia alleviating effect” value is 1 h.

The values are drawn from US20240082191A1, “TOPICAL F[…] PHOSPHOLIPID COMPOUNDS” (EGIS GYÓGYSZERGYÁR ZRT., priority 2021, published 2024).
